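Protocol summary: plate cells (96-well), add compound at 5 concentrations, incubate 48 h, interpolate endpoints linearly. Abbreviation: GI50, concentration required for 50% inhibition of growth.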 Calls of active or inactive are those of the source. No stated cut-off is given here; in the data, active = GI50 up to about 1.1 µM and inactive = higher.
Tests used:
Assay in all cases: inhibition of tumour cell growth, NCI panel, 48 h
K562 = tested on: K562
NCI-H522 = tested on: NCI-H522
HCC 2998 = tested on: HCC 2998
A498 = tested on: A498
T47D = tested on: T47D
SF-268 = tested on: SF-268
SN12C = tested on: SN12C
ACHN = tested on: ACHN
MCF7 = tested on: MCF7
SF-539 = tested on: SF-539
RXF 393 = tested on: RXF 393
HCT-15 = tested on: HCT-15
HOP-62 = tested on: HOP-62
KM12 = tested on: KM12
UACC-62 = tested on: UACC-62
NCI-H226 = tested on: NCI-H226
NCI-H23 = tested on: NCI-H23
TK-10 = tested on: TK-10
OVCAR-4 = tested on: OVCAR-4
SNB-19 = tested on: SNB-19

Compound | GI50 (K562) | GI50 (NCI-H522) | GI50 (HCC 2998) | GI50 (A498) | GI50 (T47D) | GI50 (SF-268) | GI50 (SN12C) | GI50 (ACHN) | GI50 (MCF7) | GI50 (SF-539) | GI50 (RXF 393) | GI50 (HCT-15) [µM] | GI50 (HOP-62) | GI50 (KM12) | GI50 (UACC-62) | GI50 (NCI-H226) | GI50 (NCI-H23) | GI50 (TK-10) | GI50 (OVCAR-4) | GI50 (SNB-19)
CCOC(=O)/C=C(\C(=O)OCC)n1cc(C)c(=O)n(Cc2cnnn2COCCOC(C)=O)c1=O | 3.4 µM (inactive) | 1.21 µM (inactive) | 16.6 µM (inactive) | 20.8 µM (inactive) | 5.78 µM (inactive) | 15.5 µM (inactive) | 16 µM (inactive) | 2.67 µM (inactive) | 5.31 µM (inactive) | 2.2 µM (inactive) | 3.28 µM (inactive) | 3.44 | 22.2 µM (inactive) | 16.4 µM (inactive) | 15.4 µM (inactive) | 9.59 µM (inactive) | 17.5 µM (inactive) | 4.91 µM (inactive) | 15.6 µM (inactive) | 35.2 µM (inactive)
COC(=O)CN1Cc2cc(C)cc(c2O)CN(CC(=O)OC)Cc2cc(C)cc(c2O)CN(CC(=O)OC)Cc2cc(C)cc(c2O)CN(CC(=O)OC)Cc2cc(C)cc(c2O)C1 | 21.8 µM (inactive) | > 100 µM (inactive) | 13.6 µM (inactive) | 18.1 µM (inactive) | 13.2 µM (inactive) | 9.89 µM (inactive) | 21.5 µM (inactive) | 11.5 µM (inactive) | 14.1 µM (inactive) | 12.8 µM (inactive) | 4.19 µM (inactive) | 14.6 | 9.51 µM (inactive) | 32.6 µM (inactive) | 39.6 µM (inactive) | 8.04 µM (inactive) | 30.5 µM (inactive) | 15.4 µM (inactive) | 12.2 µM (inactive) | 16 µM (inactive)
CN(C)CC1CCC/C(=C\c2ccc(OC(=O)/C=C/c3ccc(Cl)c(Cl)c3)cc2)C1=O (stereo not given) | 1.94 µM (inactive) | 3.37 µM (inactive) | 2.92 µM (inactive) | 7.89 µM (inactive) | 2.44 µM (inactive) | 9.29 µM (inactive) | 2.39 µM (inactive) | 1.82 µM (inactive) | 0.857 µM (active) | 2.59 µM (inactive) | 1.88 µM (inactive) | 2.45 | 2.75 µM (inactive) | 1.61 µM (inactive) | 12.3 µM (inactive) | 1.71 µM (inactive) | 3.77 µM (inactive) | 1.76 µM (inactive) | 22.9 µM (inactive) | 10.5 µM (inactive)
Cc1c(/N=N/c2ccccc2)c(-c2ccccc2)n(C2OC(CO)C(O)C(O)C2O)c(=S)c1C#N (stereo not given) | 3.21 µM (inactive) | 3.5 µM (inactive) | 5.3 µM (inactive) | 14.4 µM (inactive) | 0.245 µM (active) | 8.38 µM (inactive) | 6.22 µM (inactive) | 3.95 µM (inactive) | 4.74 µM (inactive) | 5.13 µM (inactive) | 2.5 µM (inactive) | 5.01 | 7.14 µM (inactive) | 2.98 µM (inactive) | 3.6 µM (inactive) | 10.8 µM (inactive) | 3.36 µM (inactive) | 9.29 µM (inactive) | 6.1 µM (inactive) | 7.64 µM (inactive)
CC1=NC(C)(COC(=O)C2(C)NC(C)(CO)CO2)COC1=O (stereo not given) | > 100 µM (inactive) | > 100 µM (inactive) | > 100 µM (inactive) | > 100 µM (inactive) | > 100 µM (inactive) | > 100 µM (inactive) | > 100 µM (inactive) | > 100 µM (inactive) | > 100 µM (inactive) | > 100 µM (inactive) | > 100 µM (inactive) | > 100 | > 100 µM (inactive) | > 100 µM (inactive) | > 100 µM (inactive) | > 100 µM (inactive) | > 100 µM (inactive) | > 75 µM (inactive) | > 100 µM (inactive) | > 100 µM (inactive)
Cn1c(=O)c2c(n(C)c1=O)n1c(=O)c3ccccc3nc1n2C | > 100 µM (inactive) | 90.4 µM (inactive) | > 100 µM (inactive) | > 100 µM (inactive) | > 100 µM (inactive) | 72.3 µM (inactive) | > 100 µM (inactive) | > 100 µM (inactive) | > 100 µM (inactive) | > 100 µM (inactive) | > 100 µM (inactive) | > 100 | 39.9 µM (inactive) | > 100 µM (inactive) | 46.9 µM (inactive) | 30.7 µM (inactive) | > 100 µM (inactive) | > 100 µM (inactive) | > 100 µM (inactive) | > 100 µM (inactive)
COc1ccc(/C=C(\Cl)c2ccc(OC)c(OC)c2)cc1OC | > 100 µM (inactive) | 22.9 µM (inactive) | > 100 µM (inactive) | > 43.5 µM (inactive) | > 100 µM (inactive) | > 100 µM (inactive) | > 100 µM (inactive) | > 100 µM (inactive) | > 100 µM (inactive) | > 100 µM (inactive) | > 90.4 µM (inactive) | > 100 | > 82.8 µM (inactive) | > 100 µM (inactive) | > 100 µM (inactive) | > 100 µM (inactive) | > 100 µM (inactive) | > 100 µM (inactive) | > 67.6 µM (inactive) | > 100 µM (inactive)
O=C(CCCc1cccc2[nH]c3c(c12)CN(Cc1ccccc1)CC3)c1ccc(F)cc1 | 7.01 µM (inactive) | 32.4 µM (inactive) | 11.9 µM (inactive) | > 100 µM (inactive) | 15.6 µM (inactive) | > 100 µM (inactive) | > 100 µM (inactive) | > 100 µM (inactive) | > 100 µM (inactive) | > 47.8 µM (inactive) | > 29.9 µM (inactive) | 40.3 | > 37.4 µM (inactive) | 39.1 µM (inactive) | 49.1 µM (inactive) | > 95.3 µM (inactive) | 16.3 µM (inactive) | > 100 µM (inactive) | > 67 µM (inactive) | > 100 µM (inactive)
N#Cc1cnn2c1n[n+]([O-])c1ccc(Cl)cc12 | 1.71 µM (inactive) | 1.75 µM (inactive) | 1.92 µM (inactive) | 19.3 µM (inactive) | 17.3 µM (inactive) | 9.73 µM (inactive) | 7.91 µM (inactive) | 5.79 µM (inactive) | 28.7 µM (inactive) | 18.2 µM (inactive) | 15 µM (inactive) | 1.97 | 15.2 µM (inactive) | 25.6 µM (inactive) | 4.49 µM (inactive) | 18.6 µM (inactive) | 5.7 µM (inactive) | 57.8 µM (inactive) | 2.23 µM (inactive) | 3.11 µM (inactive)
Fc1ccc(/C=C2\COCC3=C2NC(=S)NC3c2ccc(F)cc2)cc1 (stereo not given) | 19 µM (inactive) | 16.4 µM (inactive) | 18.5 µM (inactive) | 16 µM (inactive) | 26.1 µM (inactive) | 17.7 µM (inactive) | 18.5 µM (inactive) | 37 µM (inactive) | 19.1 µM (inactive) | 20 µM (inactive) | 16.6 µM (inactive) | 15.7 | 17.6 µM (inactive) | 24.4 µM (inactive) | 17.2 µM (inactive) | 21.1 µM (inactive) | 20.6 µM (inactive) | 22.1 µM (inactive) | 18.1 µM (inactive) | 23.6 µM (inactive)
Cc1c(CNc2ccc(Cl)c(Cl)c2Cl)cnc2nc(N)nc(N)c12 | < 0.0132 µM (active) | 4.46 µM (inactive) | 3.17 µM (inactive) | > 100 µM (inactive) | 4.24 µM (inactive) | 0.404 µM (active) | 1.36 µM (inactive) | 0.3 µM (active) | 0.792 µM (active) | 0.483 µM (active) | 11.9 µM (inactive) | 0.184 | 1.04 µM (active) | 4.99 µM (inactive) | 0.0771 µM (active) | 19.5 µM (inactive) | 0.255 µM (active) | 14.1 µM (inactive) | 14.5 µM (inactive) | 14.6 µM (inactive)
COc1cc2c(cc1Cc1c(F)cccc1Cl)nc(-c1c(F)cccc1Cl)n2Cc1c(F)cccc1Cl | 45.3 µM (inactive) | 16.1 µM (inactive) | 17.5 µM (inactive) | 27.3 µM (inactive) | 10.2 µM (inactive) | 58.9 µM (inactive) | 20.9 µM (inactive) | 31.8 µM (inactive) | 35.2 µM (inactive) | 21 µM (inactive) | 77.3 µM (inactive) | 62.7 | 36.1 µM (inactive) | 28.4 µM (inactive) | 56.4 µM (inactive) | 34 µM (inactive) | 19.8 µM (inactive) | > 100 µM (inactive) | 18.6 µM (inactive) | 33.2 µM (inactive)
CS(=O)(=O)OCCN(CCOS(C)(=O)=O)c1ccc(/C=N/c2ccc3oc(=O)ccc3c2)cc1 | 24.6 µM (inactive) | 0.211 µM (active) | 1.61 µM (inactive) | 2 µM (inactive) | 5.6 µM (inactive) | 5.13 µM (inactive) | 6.78 µM (inactive) | 0.492 µM (active) | 3.59 µM (inactive) | 4.43 µM (inactive) | 0.553 µM (active) | 7.21 | 1.89 µM (inactive) | 8.41 µM (inactive) | 1.8 µM (inactive) | 3.53 µM (inactive) | 2.04 µM (inactive) | 2.45 µM (inactive) | 11.7 µM (inactive) | 8.97 µM (inactive)
O=C1CC(c2ccccc2)n2cccc21 (stereo not given) | > 100 µM (inactive) | > 100 µM (inactive) | > 100 µM (inactive) | > 100 µM (inactive) | > 100 µM (inactive) | > 100 µM (inactive) | > 100 µM (inactive) | > 100 µM (inactive) | > 100 µM (inactive) | > 100 µM (inactive) | > 100 µM (inactive) | > 100 | > 100 µM (inactive) | > 100 µM (inactive) | > 100 µM (inactive) | > 100 µM (inactive) | > 100 µM (inactive) | > 100 µM (inactive) | > 100 µM (inactive) | > 100 µM (inactive)

Source: ChEMBL document CHEMBL1201862, “PubChem BioAssay data set” (2004)
